Experimental data reported in US20250313535A1, “ALPHA 4 BETA 7 INTEGRIN MODULATORS AND USES THEREOF” (DICE MOLECULES SV, INC., priority 2022, published 2025).
Read-outs that look alike come from different tables or passages of the source.

Experiments:
α4β7 integrin = α4β7 integrin (Homo sapiens (Human), UniProt P13612+P26010); experiment: Integrin Adhesion Assay: Protocol 4 (MAdCAM-coated plate, RPMI-8866 cells with stable LOF mutation of the ITGB1 gene); type: cell-based
In short: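 RPMI-8866 cells with CRISPR/Cas9 knockout of ITGB1 (2×10^6/mL) were added to MAdCAM-coated wells with compound (1% DMSO) in HEPES/NaCl buffer with 1 mM MnCl2, 0.1 mM CaCl2 and 1% BSA, then incubated 1 h at 37 °C. After four washes, adherent cells were quantified by CellTiter-Glo luminescence. Percent inhibition versus DMSO and control compound was fitted to 4-parameter curves.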

α4β1 integrin = α4β1 integrin (Homo sapiens (Human), UniProt P05556+P13612); experiment: Integrin Adhesion Assay: Protocol 5 (VCAM-coated plate, RPMI-8866 cells with stable LOF mutation of the ITGB7 gene); type: cell-based
α4β1 integrin, sequence (P13612 34-1032): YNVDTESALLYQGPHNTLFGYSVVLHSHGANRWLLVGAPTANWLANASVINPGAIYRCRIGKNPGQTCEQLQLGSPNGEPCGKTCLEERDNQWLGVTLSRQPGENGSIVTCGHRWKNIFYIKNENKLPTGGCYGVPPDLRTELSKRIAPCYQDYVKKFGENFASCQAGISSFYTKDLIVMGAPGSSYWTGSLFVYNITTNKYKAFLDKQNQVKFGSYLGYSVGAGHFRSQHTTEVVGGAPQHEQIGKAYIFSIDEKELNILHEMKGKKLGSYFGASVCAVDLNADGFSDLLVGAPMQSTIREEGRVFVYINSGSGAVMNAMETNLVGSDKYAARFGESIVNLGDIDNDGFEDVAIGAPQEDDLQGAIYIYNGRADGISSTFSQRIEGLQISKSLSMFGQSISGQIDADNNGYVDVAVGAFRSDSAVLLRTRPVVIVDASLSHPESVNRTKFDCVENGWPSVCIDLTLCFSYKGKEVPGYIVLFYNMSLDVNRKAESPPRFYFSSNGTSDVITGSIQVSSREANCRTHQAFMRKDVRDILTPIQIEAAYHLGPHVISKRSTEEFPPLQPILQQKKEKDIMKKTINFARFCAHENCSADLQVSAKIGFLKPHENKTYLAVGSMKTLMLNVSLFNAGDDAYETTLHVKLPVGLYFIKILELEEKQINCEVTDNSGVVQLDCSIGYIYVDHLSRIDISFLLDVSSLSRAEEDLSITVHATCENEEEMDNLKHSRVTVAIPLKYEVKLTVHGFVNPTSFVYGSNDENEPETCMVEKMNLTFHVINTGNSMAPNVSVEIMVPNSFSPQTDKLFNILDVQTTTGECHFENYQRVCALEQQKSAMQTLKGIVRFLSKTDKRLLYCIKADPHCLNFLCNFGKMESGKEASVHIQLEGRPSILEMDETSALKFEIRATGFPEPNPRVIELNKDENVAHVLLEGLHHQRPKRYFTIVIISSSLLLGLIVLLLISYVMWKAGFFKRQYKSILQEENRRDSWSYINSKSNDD
α4β1 integrin, sequence (P05556 21-798): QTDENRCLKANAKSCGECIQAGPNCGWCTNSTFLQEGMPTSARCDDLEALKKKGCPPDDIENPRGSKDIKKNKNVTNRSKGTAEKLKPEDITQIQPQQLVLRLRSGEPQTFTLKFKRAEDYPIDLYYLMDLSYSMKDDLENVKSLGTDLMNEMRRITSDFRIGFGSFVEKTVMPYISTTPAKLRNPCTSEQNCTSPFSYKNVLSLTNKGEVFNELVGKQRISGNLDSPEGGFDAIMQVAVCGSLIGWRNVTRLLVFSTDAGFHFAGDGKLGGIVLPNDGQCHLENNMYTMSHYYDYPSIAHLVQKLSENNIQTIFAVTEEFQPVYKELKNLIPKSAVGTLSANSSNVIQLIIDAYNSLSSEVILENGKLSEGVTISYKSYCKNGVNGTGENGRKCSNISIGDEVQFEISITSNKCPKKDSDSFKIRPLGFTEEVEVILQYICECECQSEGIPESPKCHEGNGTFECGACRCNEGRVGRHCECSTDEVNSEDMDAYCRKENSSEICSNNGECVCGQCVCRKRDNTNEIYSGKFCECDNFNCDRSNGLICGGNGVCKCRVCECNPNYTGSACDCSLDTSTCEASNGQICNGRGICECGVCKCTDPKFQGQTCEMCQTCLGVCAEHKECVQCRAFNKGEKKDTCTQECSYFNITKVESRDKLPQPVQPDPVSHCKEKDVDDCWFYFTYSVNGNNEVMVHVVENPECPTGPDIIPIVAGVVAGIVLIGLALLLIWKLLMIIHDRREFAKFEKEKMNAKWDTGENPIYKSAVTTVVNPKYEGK
In short: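 RPMI-8866 B cells with CRISPR/Cas9 ITGB7 knockout (clonal, verified by flow cytometry) adhered to VCAM-coated wells for 1 h at 37° C in HEPES/NaCl buffer with 1 mM MnCl2, 0.1 mM CaCl2, 1% BSA, 1% DMSO. Bound cells quantified by CellTiter-Glo luminescence after washing; % inhibition versus DMSO and control, 4-parameter fit.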

[1] = Protocol 4, RPMI-8866 cells with LOF mutation of ITGB1, MAdCAM, read-out: Mean IC50 α4β7 KO
[2] = Protocol 5, RPMI-8866 cells with LOF mutation of ITGB7, VCAM, read-out: Mean IC50 α4β1 KO
[3] = RPMI-8866 cells with stable LOF mutation of the ITGB1 gene, read-out: Mean IC50 α4β7 KO^a
[4] = RPMI-8866 cells with stable LOF mutation of the ITGB7 gene, read-out: Mean IC50 α4β1 KO^b

α4β7 integrin, sequence (P13612 34-1032): as the sequence (P13612 34-1032) above
α4β7 integrin, sequence (P26010 20-798): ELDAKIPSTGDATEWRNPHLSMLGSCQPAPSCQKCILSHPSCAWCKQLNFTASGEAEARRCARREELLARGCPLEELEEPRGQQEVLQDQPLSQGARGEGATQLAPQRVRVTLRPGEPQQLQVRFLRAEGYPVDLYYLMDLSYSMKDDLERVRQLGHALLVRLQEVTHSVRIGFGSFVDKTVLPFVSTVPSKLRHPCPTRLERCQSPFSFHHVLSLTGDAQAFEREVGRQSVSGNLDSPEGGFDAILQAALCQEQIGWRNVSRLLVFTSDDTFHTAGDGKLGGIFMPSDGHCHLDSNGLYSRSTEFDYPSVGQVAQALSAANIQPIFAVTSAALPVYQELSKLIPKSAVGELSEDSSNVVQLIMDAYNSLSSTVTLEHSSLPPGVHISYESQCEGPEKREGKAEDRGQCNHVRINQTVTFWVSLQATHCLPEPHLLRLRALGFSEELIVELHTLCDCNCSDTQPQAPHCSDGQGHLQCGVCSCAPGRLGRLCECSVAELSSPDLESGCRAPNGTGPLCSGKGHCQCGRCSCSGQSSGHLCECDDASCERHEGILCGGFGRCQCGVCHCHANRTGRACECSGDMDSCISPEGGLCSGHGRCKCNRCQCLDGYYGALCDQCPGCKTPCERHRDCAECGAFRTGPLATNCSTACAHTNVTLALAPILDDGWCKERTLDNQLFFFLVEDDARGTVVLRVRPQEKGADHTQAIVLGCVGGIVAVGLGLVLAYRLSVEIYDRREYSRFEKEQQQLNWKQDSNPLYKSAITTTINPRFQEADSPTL

## CN(Cc1cnc(-c2cccc3c(C[C@H](NC(=O)C4(C(F)(F)F)CCN(CC(F)(F)F)CC4)C(=O)O)cccc23)c2ccccc12)CC(F)F [Compound 922]
α4β7 integrin; [1]
  IC50: 10 to 100 nM
α4β1 integrin; [2]
  IC50: > 1000 nM

## COc1cnc(CN2CCC3(CCCCC3)CC2)c(OC)c1-c1cccc2c(C[C@H](NC(=O)c3c(C)cccc3F)C(=O)O)cccc12 [Compound 1039]
α4β7 integrin; [1]
  IC50: < 10 nM
α4β1 integrin; [2]
  IC50: > 1000 nM

## Cn1c(=O)c(-c2cccc3c(C[C@H](NC(=O)C4(C(F)(F)F)CCN(C5CCS(=O)(=O)CC5)CC4)C(=O)O)cccc23)c(C(F)(F)F)c2ccccc21 [Compound 505]
α4β7 integrin; [3]
  IC50: 10 to 100 nM
α4β1 integrin; [4]
  IC50: > 1000 nM

## COc1cc2c(c(C)c1-c1cccc3c(C[C@H](NC(=O)C4(C(F)(F)F)CCN(CC(F)(F)F)CC4)C(=O)O)cccc13)CN(C)CC2 [Compound 724]
α4β7 integrin; [1]
  IC50: < 10 nM
α4β1 integrin; [2]
  IC50: 10 to 100 nM

## COc1cccc(OC)c1-c1cccc2c(C[C@H](NC(=O)c3c(C)cccc3F)C(=O)O)cccc12 [Compound 526]
α4β7 integrin; [3]
  IC50: 10 to 100 nM
α4β1 integrin; [4]
  IC50: > 1000 nM

## COc1cccc(CCN2CCC(c3ccccc3)CC2)c1-c1cccc2c(C[C@H](NC(=O)C3(C(F)(F)F)CCN(CC(F)F)CC3)C(=O)O)cccc12 [Compound 975]
α4β7 integrin; [1]
  IC50: < 10 nM
α4β1 integrin; [2]
  IC50: 100 to 1000 nM

## O=C(O)[C@H](Cc1cccc2c(-c3ncc(CN4CCCCC4)c4ccccc34)cccc12)NC(=O)C1(C(F)(F)F)CCN(C2COC2)CC1 [Compound 577]
α4β7 integrin; [3]
  IC50: < 10 nM
α4β1 integrin; [4]
  IC50: 100 to 1000 nM

## O=C(O)[C@H](Cc1cccc2c(-c3nccc4c(CN5CCC(F)(F)CC5)cccc34)cccc12)NC(=O)C1(C(F)(F)F)CCN(CC(F)(F)F)CC1 [Compound 554]
α4β7 integrin; [3]
  IC50: 10 to 100 nM
α4β1 integrin; [4]
  IC50: > 1000 nM

## COc1ccc2c(c1-c1cccc3c(C[C@H](NC(=O)c4c(C)cccc4F)C(=O)O)cccc13)CN(CC(F)F)CC2 [Compound 995]
α4β7 integrin; [1]
  IC50: 10 to 100 nM
α4β1 integrin; [2]
  IC50: 100 to 1000 nM

## CN1CCC(c2cnc(-c3cccc4c(C[C@H](NC(=O)C5(C(F)(F)F)CCN(CC(F)(F)F)CC5)C(=O)O)cccc34)c(C(F)(F)F)c2)CC1 [Compound 757]
α4β7 integrin; [1]
  IC50: < 10 nM
α4β1 integrin; [2]
  IC50: 100 to 1000 nM

## O=C(O)[C@H](Cc1cccc2c(-c3nccc4ccc(CCCN5CCC6(CC5)CC6)cc34)cccc12)NC(=O)C1(C(F)(F)F)CCN(C2COC2)CC1 [Compound 773]
α4β7 integrin; [1]
  IC50: < 10 nM
α4β1 integrin; [2]
  IC50: 100 to 1000 nM

## COc1ccc(CN2CCC(F)(F)CC2)c(C(F)(F)F)c1-c1cccc2c(C[C@H](NC(=O)C3(C(F)(F)F)CCN(CC(F)(F)F)CC3)C(=O)O)cccc12 [Compound 822]
α4β7 integrin; [1]
  IC50: 100 to 1000 nM
α4β1 integrin; [2]
  IC50: > 1000 nM

## O=C(O)[C@H](Cc1cccc2c(-c3ncc(CN4CCC[C@H](F)C4)c4ccccc34)cccc12)NC(=O)C1(C(F)(F)F)CCN(CC(F)(F)F)CC1 [Compound 852]
α4β7 integrin; [1]
  IC50: 10 to 100 nM
α4β1 integrin; [2]
  IC50: > 1000 nM

## COc1cccc(CCCN(C)C)c1-c1cccc2c(C[C@H](NC(=O)C3(C(F)(F)F)CCN(CC(F)(F)F)CC3)C(=O)O)cccc12 [Compound 567]
α4β7 integrin; [3]
  IC50: < 10 nM
α4β1 integrin; [4]
  IC50: 100 to 1000 nM

## CC[C@@H](N1CCC(C(=O)N[C@@H](Cc2cccc3c(-c4c(C(F)(F)F)c5ccccc5n(C)c4=O)cccc23)C(=O)O)(C(F)(F)F)CC1)C(F)(F)F [Compound 484]
α4β7 integrin; [3]
  IC50: 100 to 1000 nM
α4β1 integrin; [4]
  IC50: > 1000 nM

## O=C(O)[C@H](Cc1cccc2c(-c3nccc4ccccc34)cccc12)NC(=O)C1(C(F)(F)F)CCN(CC(F)(F)F)CC1 [Compound 723]
α4β7 integrin; [1]
  IC50: 10 to 100 nM
α4β1 integrin; [2]
  IC50: > 1000 nM

## COc1cc(CN2CCCCC2)cc(OC)c1-c1cccc2c(C[C@H](NC(=O)C3(C(F)(F)F)CCN(CC(F)(F)F)CC3)C(=O)O)cccc12 [Compound 794]
α4β7 integrin; [1]
  IC50: < 10 nM
α4β1 integrin; [2]
  IC50: 100 to 1000 nM

## Cc1cccc(F)c1C(=O)N[C@@H](Cc1cccc2c(-c3cc(CN4CCCCC4)ccn3)cccc12)C(=O)O [Compound 688]
α4β7 integrin; [1]
  IC50: 10 to 100 nM
α4β1 integrin; [2]
  IC50: > 1000 nM

## COc1ccc(CN2CCC(C(C)(C)C)CC2)c(OC)c1-c1cccc2c(C[C@H](NC(=O)C3(C(F)(F)F)CCN(CC(F)(F)F)CC3)C(=O)O)cccc12 [Compound 818]
α4β7 integrin; [1]
  IC50: < 10 nM
α4β1 integrin; [2]
  IC50: > 1000 nM

## O=C(O)[C@H](Cc1cccc2c(-c3ncc(CN4CCN(C5CC5)CC4)c4ccccc34)cccc12)NC(=O)C1(C(F)(F)F)CCN(CC(F)F)CC1 [Compound 901]
α4β7 integrin; [1]
  IC50: < 10 nM
α4β1 integrin; [2]
  IC50: 100 to 1000 nM

## COc1ccc2ccnc(-c3cccc4c(C[C@H](NC(=O)C5(C(F)(F)F)CCN(CC(F)(F)F)CC5)C(=O)O)cccc34)c2c1 [Compound 777]
α4β7 integrin; [1]
  IC50: 10 to 100 nM
α4β1 integrin; [2]
  IC50: > 1000 nM

## CN(C)Cc1ccc2c(c1)c(C(F)(F)F)c(-c1cccc3c(C[C@H](NC(=O)C4(C(F)(F)F)CCN(CC(F)(F)F)CC4)C(=O)O)cccc13)c(=O)n2C [Compound 696]
α4β7 integrin; [1]
  IC50: < 10 nM
α4β1 integrin; [2]
  IC50: 10 to 100 nM
